The values below come from patent US11912693B2, “Compounds for modulating S1P1 activity and methods of using the same” (TREVENA, INC., priority 2017, dated 2024).

Assay [1] deals with T1, human sphingosine-1-phosphate receptor 1 (S1P1) (Homo sapiens (Human), UniProt P21453). Put plainly: Inhibition of cAMP production (HTRF cAMP HiRange), S1P1 CHO-K1 cells. It is filed as cell-based. The settings on record: for Emax: CHO-K1, read-out: hS1P1 cAMP SPAN. An outline of the steps: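 CHO-K1 cells stably co-expressing human S1P1 (C-terminal Prolink tag) and EA-β-arrestin2 were grown in AssayComplete Media 6 at 37° C. and 5% CO2, plated, and incubated overnight. Agonist-driven inhibition of intracellular cAMP was read by TR-FRET with the HTRF cAMP HiRange kit on a PheraStar reader. Potency is pEC50, and efficacy (SPAN) is normalized to fingolimod.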
A general note: Cyclic AMP is a second messenger, typically raised through Gs and lowered through Gi signalling.
Target sequence in this assay (P21453 whole entry, looked up): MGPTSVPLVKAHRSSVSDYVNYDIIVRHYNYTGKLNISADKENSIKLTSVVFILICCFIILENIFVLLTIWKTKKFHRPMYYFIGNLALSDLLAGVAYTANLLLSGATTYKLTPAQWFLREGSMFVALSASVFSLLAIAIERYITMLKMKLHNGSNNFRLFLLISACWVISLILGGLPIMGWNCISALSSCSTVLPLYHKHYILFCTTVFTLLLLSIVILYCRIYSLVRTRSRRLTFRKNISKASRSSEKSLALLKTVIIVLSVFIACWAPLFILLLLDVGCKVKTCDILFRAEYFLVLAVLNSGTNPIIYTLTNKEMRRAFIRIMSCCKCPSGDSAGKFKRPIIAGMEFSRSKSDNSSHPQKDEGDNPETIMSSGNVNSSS

In assay [2] the target is T1, human sphingosine-1-phosphate receptor 1 (S1P1). The assay is described as follows: β-Arrestin2 recruitment assay (PathHunter), S1P1 CHO-K1 cells. It is filed as cell-based. Particulars: for Emax: CHO-K1, read-out: hS1P1 B-arrestin2 SPAN. An outline of the steps:
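Enzyme-fragment complementation read-out: agonist-driven β-arrestin2 binding to ProLink-tagged human S1P1 in stable CHO-K1 cells restores β-galactosidase, measured 1 h at room temperature after a 60 min 37° C. compound incubation. Potency as pEC50, efficacy relative to fingolimod (SPAN).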
Target sequence in this assay (P21453 whole entry, looked up): as above
Target sequence in this assay (P32121 whole entry partner, looked up): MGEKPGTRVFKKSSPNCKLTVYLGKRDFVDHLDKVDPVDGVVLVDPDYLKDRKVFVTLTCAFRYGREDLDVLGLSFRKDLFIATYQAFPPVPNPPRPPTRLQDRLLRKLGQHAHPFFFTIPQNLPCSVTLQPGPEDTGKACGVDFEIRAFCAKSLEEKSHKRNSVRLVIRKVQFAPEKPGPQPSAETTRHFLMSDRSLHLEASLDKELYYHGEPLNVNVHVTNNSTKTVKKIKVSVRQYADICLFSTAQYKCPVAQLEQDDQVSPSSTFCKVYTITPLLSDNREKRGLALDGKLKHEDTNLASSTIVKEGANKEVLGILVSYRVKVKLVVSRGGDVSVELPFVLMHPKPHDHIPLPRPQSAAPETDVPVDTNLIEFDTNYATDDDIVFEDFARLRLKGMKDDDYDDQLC
On the technique in general: Recruitment of arrestin is a read-out of receptor activation apart from second messengers.

The mark [3] stands for this setting: efficacy (SPAN) normalized to fingolimod.
[4] abbreviates: inhibition of cAMP production, S1P1 CHO-K1 cells.
Setting [5] is: β-arrestin2 recruitment, S1P1 CHO-K1 cells.

For the compound `Cc1ccccc1-c1nc(-c2ccc3c(c2)nnn3CC(C)(C)O)no1` [Compound 593, 2-methyl-1-(5-(5-(o-tolyl)-1,2,4-oxadiazol-3-yl)-1H-benzo[d][1,2,3]triazol-1-yl)propan-2-ol], the Emax in assay [1] (setting [3]) and in assay [2] (setting [3]) was over 75% throughout. Moreover, the EC50 in assay [1] (inhibition of cAMP production, S1P1 CHO-K1 cells, read-out: hS1P1 cAMP pEC50 (converted)) is under 0.316 µM; in assay [2] (β-arrestin2 recruitment, S1P1 CHO-K1 cells, read-out: hS1P1 B-arrestin2 pEC50 (converted)), under 10 µM.
With `CC(C)n1nnc2cc(-c3nc(-c4ccc(OCc5ccccc5)cc4)no3)ccc21` [Compound 53, 5-{3-[4-(benzyloxy)phenyl]-1,2,4-oxadiazol-5-yl}-1-(propan-2-yl)-1H-1,2,3-benzotriazole], the Emax in assay [1] (setting [3]) and in assay [2] (setting [3]) was under 75% each time. In addition, in assay [1] (setting [4]), the “hS1P1 cAMP pEC50” value was under 6.5. Also, the “hS1P1 B-arrestin2 pEC50” value in assay [2] (setting [5]) is listed as under 5.
Consider `CCC1(CC)CC(=O)c2cc(-c3ncc(-c4cccnc4)cn3)ccc2O1` [Compound 509, 2,2-diethyl-6-(5-(pyridin-3-yl)pyrimidin-2-yl)chroman-4-one], for which the “hS1P1 cAMP pEC50” value in assay [1] (setting [4]) is under 6.5. Moreover, the “hS1P1 B-arrestin2 pEC50” value in assay [2] (setting [5]) is on record as under 5.
Consider `CCCn1nnc2cc(-c3nc(-c4cc(C)cc(C)c4)no3)ccc21` [Compound 76, 5-[3-(3,5-dimethylphenyl)-1,2,4-oxadiazol-5-yl]-1-propyl-1H-1,2,3-benzotriazole], for which the Emax in assay [1] (setting [3]) and in assay [2] (setting [3]) was under 75% in each case. Moreover, in assay [1] (setting [4]), the “hS1P1 cAMP pEC50” value is listed as under 6.5. Moreover, the “hS1P1 B-arrestin2 pEC50” value in assay [2] (setting [5]) is listed as under 5.
As for `C=CCNc1ccc(-c2nc(-c3ccc4[nH]nnc4c3)no2)cc1C#N` [Compound 145, 5-(3-(1H-benzo[d][1,2,3]triazol-5-yl)-1,2,4-oxadiazol-5-yl)-2-(allylamino)benzonitrile], in assay [1] (setting [4]), the “hS1P1 cAMP pEC50” value is over 6.5. Further, the “hS1P1 B-arrestin2 pEC50” value in assay [2] (setting [5]) is given as over 5.
For `CCCn1nnc2cc(-c3nc(-c4cccc(C)c4)no3)ccc21` [Compound 54, 5-[3-(3-methylphenyl)-1,2,4-oxadiazol-5-yl]-1-propyl-1H-1,2,3-benzotriazole] the same measures were under 6.5 and under 5.
Take `Cc1ccc(-c2noc(-c3ccc4c(c3)nnn4C3CC3)n2)cn1` [Compound 87, 1-cyclopropyl-5-[3-(6-methylpyridin-3-yl)-1,2,4-oxadiazol-5-yl]-1H-1,2,3-benzotriazole]: the Emax in assay [1] (setting [3]) and in assay [2] (setting [3]) was under 75% each time. Besides, the “hS1P1 cAMP pEC50” value in assay [1] (setting [4]) is on record as under 6.5. In addition, in assay [2] (setting [5]), the “hS1P1 B-arrestin2 pEC50” value is given as under 5.
Regarding `COc1ccccc1-c1cnc(-c2ccc3c(c2)nnn3C(C)C)s1` [Compound 184, 2-(1-isopropyl-1H-benzo[d][1,2,3]triazol-5-yl)-5-(2-methoxyphenyl)thiazole], the “hS1P1 cAMP pEC50” value in assay [1] (setting [4]) was under 6.5. In addition, in assay [2] (setting [5]), the “hS1P1 B-arrestin2 pEC50” value is given as under 5.
With “2-(5-(5-(2- chlorophenyl)-1,2,4- oxadiazol-3-yl)-1H- benzo[d][1,2,3]triazol- 1-yl)-2-methylpropan- 1-ol [Compound 618]”, the “hS1P1 cAMP SPAN” value in assay [1] (setting [3]) is recorded as under 75. The “hS1P1 cAMP pEC50” value in assay [1] (setting [4]) was under 6.5. Also, the “hS1P1 B-arrestin2 SPAN” value in assay [2] (setting [3]) is under 75. The “hS1P1 B-arrestin2 pEC50” value in assay [2] (setting [5]) is over 5.
Regarding `COc1cccnc1-c1nc(-c2ccc3c(c2)nnn3C(C)C)no1` [Compound 612, 3-(1-isopropyl-1H-benzo[d][1,2,3]triazol-5-yl)-5-(3-methoxypyridin-2-yl)-1,2,4-oxadiazole], the Emax in assay [1] (setting [3]) is under 75%; in assay [2] (setting [3]) it was over 75%. Further, in assay [1] (setting [4]), the “hS1P1 cAMP pEC50” value is listed as over 6.5. Also, the “hS1P1 B-arrestin2 pEC50” value in assay [2] (setting [5]) was over 5.
`Cc1cnc(-c2noc(-c3ccc4c(c3)nnn4C(C)C)n2)cn1` [Compound 157, 5-[3-(5-methylpyrazin-2-yl)-1,2,4-oxadiazol-5-yl]-1-(propan-2-yl)-1H-1,2,3-benzotriazole]: the “hS1P1 cAMP pEC50” value in assay [1] (setting [4]) is listed as under 6.5. In addition, the “hS1P1 B-arrestin2 pEC50” value in assay [2] (setting [5]) was under 5.
As to `COc1ccccc1-c1nnc(-c2ccc3c(c2)oc(=O)n3C)o1` [Compound 350, 6-[5-(2-methoxyphenyl)-1,3,4-oxadiazol-2-yl]-3-methyl-2,3-dihydro-1,3-benzoxazol-2-one], the Emax in assay [1] (setting [3]) and in assay [2] (setting [3]) was under 75% each time. Further, in assay [1] (setting [4]), the “hS1P1 cAMP pEC50” value is given as under 6.5. Also, the “hS1P1 B-arrestin2 pEC50” value in assay [2] (setting [5]) is under 5.
For `O=C1CC2(CCCC2)Oc2ccc(-c3nc(-c4ccncc4)no3)cc21` [Compound 176, 6-[3-(pyridin-4-yl)-1,2,4-oxadiazol-5-yl]-3,4-dihydrospiro[1-benzopyran-2,1′-cyclopentane]-4-one], the Emax was over 75% in assay [1] (setting [3]) and under 75% in assay [2] (setting [3]). For the same compound, the “hS1P1 cAMP pEC50” value in assay [1] (setting [4]) was under 6.5. Also, in assay [2] (setting [5]), the “hS1P1 B-arrestin2 pEC50” value is given as under 5.
Turning to `COc1cncc(-c2nc(-c3ccc4c(c3)nnn4C(C)C)no2)c1` [Compound 272, 3-(1-isopropyl-1H-benzo[d][1,2,3]triazol-5-yl)-5-(5-methoxypyridin-3-yl)-1,2,4-oxadiazole], the Emax in assay [1] (setting [3]) and in assay [2] (setting [3]) was under 75% throughout. Also, the “hS1P1 cAMP pEC50” value in assay [1] (setting [4]) is under 6.5. Moreover, the “hS1P1 B-arrestin2 pEC50” value in assay [2] (setting [5]) is recorded as under 5.
With `CC(C)n1nnc2cc(-c3nc(-c4ccc(Oc5ccccc5)cc4)no3)ccc21` [Compound 15, 5-[3-(4-phenoxyphenyl)-1,2,4-oxadiazol-5-yl]-1-(propan-2-yl)-1H-1,2,3-benzotriazole], the “hS1P1 cAMP pEC50” value in assay [1] (setting [4]) is under 6.5. Further, the “hS1P1 B-arrestin2 pEC50” value in assay [2] (setting [5]) is listed as under 5.
On to `Cc1ccc(-c2noc(-c3ccc4c(c3)nnn4C3CCCCC3)n2)cc1` [Compound 117, 1-cyclohexyl-5-[3-(4-methylphenyl)-1,2,4-oxadiazol-5-yl]-1H-1,2,3-benzotriazole], for which the Emax in assay [1] (setting [3]) and in assay [2] (setting [3]) was under 75% each time. Also, the “hS1P1 cAMP pEC50” value in assay [1] (setting [4]) is listed as under 6.5. For the same compound, the “hS1P1 B-arrestin2 pEC50” value in assay [2] (setting [5]) was under 5.
As for `FC(F)(F)c1cc(-c2noc(-c3ccc4c(c3)nnn4C3CCCC3)n2)ccc1OCc1cccnc1` [Compound 4, 1-cyclopentyl-5-{3-[4-(pyridin-3-ylmethoxy)-3-(trifluoromethyl)phenyl]-1,2,4-oxadiazol-5-yl}-1H-1,2,3-benzotriazole], the Emax in assay [1] (setting [3]) and in assay [2] (setting [3]) was under 75% each time. Besides, the “hS1P1 cAMP pEC50” value in assay [1] (setting [4]) is reported as under 6.5. The “hS1P1 B-arrestin2 pEC50” value in assay [2] (setting [5]) was under 5.
In the case of `COc1ccc(-c2noc(-c3ccc4c(c3)nnn4C3CCCC3)n2)c2ccccc12` [Compound 91, 1-cyclopentyl-5-[3-(4-methoxynaphthalen-1-yl)-1,2,4-oxadiazol-5-yl]-1H-1,2,3-benzotriazole], the Emax in assay [1] (setting [3]) and in assay [2] (setting [3]) was under 75% in each case. For the same compound, in assay [1] (setting [4]), the “hS1P1 cAMP pEC50” value is recorded as under 6.5. Also, in assay [2] (setting [5]), the “hS1P1 B-arrestin2 pEC50” value was under 5.
Turning to `CC(C)n1nnc2cc(-c3noc(-c4ccc(-c5ccccc5)cc4)n3)ccc21` [Compound 248, 5-([1,1′-biphenyl]-4-yl)-3-(1-isopropyl-1H-benzo[d][1,2,3]triazol-5-yl)-1,2,4-oxadiazole], the “hS1P1 cAMP pEC50” value in assay [1] (setting [4]) is on record as under 6.5. Moreover, the “hS1P1 B-arrestin2 pEC50” value in assay [2] (setting [5]) is recorded as under 5.
`CC(C)CCn1nnc2cc(-c3nc(-c4ccccc4)no3)ccc21` [Compound 271, 1-(3-methylbutyl)-5-(3-phenyl-1,2,4-oxadiazol-5-yl)-1H-1,2,3-benzotriazole]: the Emax in assay [1] (setting [3]) and in assay [2] (setting [3]) was under 75% each time. Moreover, the “hS1P1 cAMP pEC50” value in assay [1] (setting [4]) is under 6.5. Moreover, in assay [2] (setting [5]), the “hS1P1 B-arrestin2 pEC50” value was under 5.
For `COc1ccc(-c2noc(-c3ccc4c(c3)nnn4CC(C)(C)O)n2)c(C)c1` [Compound 647, 1-{5-[3-(4-methoxy-2-methylphenyl)-1,2,4-oxadiazol-5-yl]-1H-1,2,3-benzotriazol-1-yl}-2-methylpropan-2-ol], the Emax in assay [1] (setting [3]) and in assay [2] (setting [3]) was over 75% throughout. In addition, in assay [1] (setting [4]), the “hS1P1 cAMP pEC50” value was over 6.5. The “hS1P1 B-arrestin2 pEC50” value in assay [2] (setting [5]) is on record as over 5.
Take `COc1cc(NC(C)=O)ccc1-c1noc(-c2ccc3c(c2)nnn3C(C)C)n1` [Compound 532, N-(3-methoxy-4-{5-[1-(propan-2-yl)-1H-1,2,3-benzotriazol-5-yl]-1,2,4-oxadiazol-3-yl}phenyl)acetamide]: the results for the Emax in assay [1] (setting [3]) and in assay [2] (setting [3]) were over 75% and under 75%, respectively. In addition, the “hS1P1 cAMP pEC50” value in assay [1] (setting [4]) was over 6.5. For the same compound, in assay [2] (setting [5]), the “hS1P1 B-arrestin2 pEC50” value is recorded as over 5.
As for `O=C1CC2(CCOCC2)Oc2ccc(-c3nc(-c4ccncc4)no3)cc21` [Compound 148, 6-[3-(pyridin-4-yl)-1,2,4-oxadiazol-5-yl]-3,4-dihydrospiro[1-benzopyran-2,4′-oxane]-4-one], in assay [1] (setting [4]), the “hS1P1 cAMP pEC50” value is on record as under 6.5. Further, in assay [2] (setting [5]), the “hS1P1 B-arrestin2 pEC50” value is given as under 5.
For the compound `CC(C)Cn1nnc2cc(-c3nc4ccncc4o3)ccc21` [Compound 504, 2-(1-isobutyl-1H-benzo[d][1,2,3]triazol-5-yl)oxazolo[5,4-c]pyridine], the values for the Emax in assay [1] (setting [3]) and in assay [2] (setting [3]) were over 75% and under 75%, respectively. In addition, the “hS1P1 cAMP pEC50” value in assay [1] (setting [4]) is under 6.5. Further, the “hS1P1 B-arrestin2 pEC50” value in assay [2] (setting [5]) is given as under 5.
On to `CC(C)n1nnc2cc(-c3ncc(-c4ccccc4F)s3)ccc21` [Compound 63, 5-(2-fluorophenyl)-2-(1-isopropyl-1H-benzo[d][1,2,3]triazol-5-yl)thiazole], for which the “hS1P1 cAMP pEC50” value in assay [1] (setting [4]) is reported as over 6.5. Also, in assay [2] (setting [5]), the “hS1P1 B-arrestin2 pEC50” value is listed as under 5.
